Test results reported in patent US8357707B2, “2-carboxamide cycloamino ureas” (Novartis AG, priority 2009, dated 2013).

Experiments:
Assay type in all cases: biochemical
PI3Kβ = biological target: T1, PI3Kβ (Homo sapiens, UniProt P42338); assay: PI3K KinaseGlo assay, PI3Kbeta; details: 25 nM enzyme, 1 μM ATP, 30 mins
T1 construct: His tag (C); made in house; host or cells: Tn5 insect cells, baculovirus BV949 (vector LR280)

PI3Kδ = biological target: T2, PI3Kδ (Homo sapiens, UniProt O00329); assay: PI3K KinaseGlo assay, PI3Kdelta; details: 10 nM enzyme, 1 μM ATP, 30 mins
T2 construct: His tag (C); made in house; host or cells: Tn5 insect cells, baculovirus BV1060 (vector LR415)

PI3Kα = biological target: T3, PI3Kα (Homo sapiens, UniProt P42336); assay: PI3K KinaseGlo assay, PI3Kalpha; details: 10 nM enzyme, 1 μM ATP, 30 mins
T3 construct: His tag (C); made in house; host or cells: Tn5 insect cells, baculovirus BV-1075

PI3Kγ = biological target: T4, PI3Kγ (Homo sapiens, UniProt P48736, Q459R); assay: PI3K KinaseGlo assay, PI3Kgamma; details: 150 nM enzyme, 1 μM ATP, 90 mins
T4 construct: Constructs lacking the N-terminal 144 aa; His tag (C); made in house; host or cells: Tn5 insect cells, baculovirus BV950; construct from the Roger Williams lab (MRC LMB)
T4 sequence (P48736 with tags, fused parts or gaps Q459R): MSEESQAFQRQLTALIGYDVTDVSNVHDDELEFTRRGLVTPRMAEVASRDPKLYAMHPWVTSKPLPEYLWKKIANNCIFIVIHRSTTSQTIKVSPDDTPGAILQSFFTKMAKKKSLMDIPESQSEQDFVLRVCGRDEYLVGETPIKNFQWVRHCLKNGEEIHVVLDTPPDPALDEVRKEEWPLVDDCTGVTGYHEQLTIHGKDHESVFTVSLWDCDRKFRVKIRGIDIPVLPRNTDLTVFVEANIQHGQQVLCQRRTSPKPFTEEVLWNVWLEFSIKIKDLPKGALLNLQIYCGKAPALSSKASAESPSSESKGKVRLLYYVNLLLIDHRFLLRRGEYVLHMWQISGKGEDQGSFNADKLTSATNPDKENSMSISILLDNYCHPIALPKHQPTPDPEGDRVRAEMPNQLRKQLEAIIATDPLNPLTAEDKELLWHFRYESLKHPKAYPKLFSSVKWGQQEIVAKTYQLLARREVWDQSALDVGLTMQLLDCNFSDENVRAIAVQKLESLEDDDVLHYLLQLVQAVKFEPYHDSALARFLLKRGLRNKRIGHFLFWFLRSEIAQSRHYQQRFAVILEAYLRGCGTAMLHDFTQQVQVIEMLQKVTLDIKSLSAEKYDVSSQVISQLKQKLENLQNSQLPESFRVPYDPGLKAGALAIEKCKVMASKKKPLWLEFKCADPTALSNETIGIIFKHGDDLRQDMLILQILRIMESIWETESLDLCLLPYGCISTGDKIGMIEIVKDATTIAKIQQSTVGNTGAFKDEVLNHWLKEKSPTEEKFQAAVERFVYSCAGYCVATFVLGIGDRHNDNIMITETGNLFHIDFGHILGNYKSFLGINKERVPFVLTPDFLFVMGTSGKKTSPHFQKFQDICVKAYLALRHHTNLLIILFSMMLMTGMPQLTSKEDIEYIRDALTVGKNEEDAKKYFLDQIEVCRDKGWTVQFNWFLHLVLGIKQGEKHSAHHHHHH

T3 sequence (P42336 with tags, fused parts or gaps): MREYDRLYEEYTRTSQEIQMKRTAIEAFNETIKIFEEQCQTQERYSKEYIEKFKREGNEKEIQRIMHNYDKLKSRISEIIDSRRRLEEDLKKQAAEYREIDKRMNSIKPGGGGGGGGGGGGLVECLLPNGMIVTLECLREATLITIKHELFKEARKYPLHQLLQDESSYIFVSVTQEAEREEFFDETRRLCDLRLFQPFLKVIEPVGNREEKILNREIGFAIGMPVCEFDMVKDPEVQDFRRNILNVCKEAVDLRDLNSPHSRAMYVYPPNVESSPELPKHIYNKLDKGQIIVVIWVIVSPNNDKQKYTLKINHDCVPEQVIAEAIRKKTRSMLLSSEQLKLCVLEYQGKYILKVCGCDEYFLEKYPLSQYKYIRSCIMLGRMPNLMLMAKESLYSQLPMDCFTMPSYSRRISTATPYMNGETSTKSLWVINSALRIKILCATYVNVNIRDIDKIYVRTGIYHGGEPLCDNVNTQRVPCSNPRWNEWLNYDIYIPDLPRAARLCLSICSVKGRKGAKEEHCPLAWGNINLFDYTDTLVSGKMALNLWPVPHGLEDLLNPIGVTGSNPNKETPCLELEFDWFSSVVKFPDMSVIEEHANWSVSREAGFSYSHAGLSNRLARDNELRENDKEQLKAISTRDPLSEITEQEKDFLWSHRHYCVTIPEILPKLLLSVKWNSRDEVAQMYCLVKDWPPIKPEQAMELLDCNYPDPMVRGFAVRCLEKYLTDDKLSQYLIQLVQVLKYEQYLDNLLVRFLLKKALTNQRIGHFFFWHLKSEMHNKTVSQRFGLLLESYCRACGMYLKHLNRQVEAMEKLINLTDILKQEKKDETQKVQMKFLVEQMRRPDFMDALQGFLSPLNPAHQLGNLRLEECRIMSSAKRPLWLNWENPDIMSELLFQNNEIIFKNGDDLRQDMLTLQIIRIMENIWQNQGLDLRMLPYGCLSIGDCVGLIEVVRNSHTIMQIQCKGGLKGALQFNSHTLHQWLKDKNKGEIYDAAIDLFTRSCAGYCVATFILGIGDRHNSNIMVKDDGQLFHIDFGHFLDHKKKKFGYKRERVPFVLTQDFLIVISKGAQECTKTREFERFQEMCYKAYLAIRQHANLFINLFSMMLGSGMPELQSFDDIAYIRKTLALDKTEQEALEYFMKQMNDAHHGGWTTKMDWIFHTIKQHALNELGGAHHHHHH
T1 sequence (P42338 with tags, fused parts or gaps): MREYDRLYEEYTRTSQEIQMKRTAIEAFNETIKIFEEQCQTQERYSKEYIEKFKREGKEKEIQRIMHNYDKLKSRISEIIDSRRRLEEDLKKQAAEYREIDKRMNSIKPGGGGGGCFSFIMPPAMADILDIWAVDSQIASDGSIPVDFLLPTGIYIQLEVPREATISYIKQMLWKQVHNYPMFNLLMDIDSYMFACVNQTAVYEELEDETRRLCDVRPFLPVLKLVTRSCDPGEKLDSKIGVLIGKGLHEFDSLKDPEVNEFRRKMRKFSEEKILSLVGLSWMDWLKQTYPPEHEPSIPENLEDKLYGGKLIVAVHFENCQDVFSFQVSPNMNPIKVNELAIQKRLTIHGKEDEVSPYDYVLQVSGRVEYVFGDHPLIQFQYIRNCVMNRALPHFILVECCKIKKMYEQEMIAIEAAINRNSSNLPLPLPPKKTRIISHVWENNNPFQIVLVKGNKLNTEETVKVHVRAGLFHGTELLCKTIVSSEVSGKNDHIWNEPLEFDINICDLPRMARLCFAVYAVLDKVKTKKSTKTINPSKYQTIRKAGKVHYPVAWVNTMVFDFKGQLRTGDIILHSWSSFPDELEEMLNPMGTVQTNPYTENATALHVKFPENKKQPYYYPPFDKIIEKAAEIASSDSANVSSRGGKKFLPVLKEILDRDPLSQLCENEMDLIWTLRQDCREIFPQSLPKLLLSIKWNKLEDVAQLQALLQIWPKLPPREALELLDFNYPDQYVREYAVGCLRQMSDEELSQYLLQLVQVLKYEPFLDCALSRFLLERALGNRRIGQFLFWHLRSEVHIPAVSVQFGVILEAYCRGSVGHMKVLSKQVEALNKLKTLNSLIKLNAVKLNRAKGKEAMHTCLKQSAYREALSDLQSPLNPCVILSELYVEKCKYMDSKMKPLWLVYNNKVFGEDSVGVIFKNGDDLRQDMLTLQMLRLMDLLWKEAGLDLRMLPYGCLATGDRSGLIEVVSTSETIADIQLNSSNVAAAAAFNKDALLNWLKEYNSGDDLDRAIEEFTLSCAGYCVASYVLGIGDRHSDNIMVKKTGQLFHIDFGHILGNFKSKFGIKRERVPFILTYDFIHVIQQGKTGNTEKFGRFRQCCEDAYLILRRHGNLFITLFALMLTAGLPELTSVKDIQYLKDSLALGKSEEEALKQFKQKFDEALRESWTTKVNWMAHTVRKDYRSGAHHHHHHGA
T2 sequence (O00329 with tags, fused parts or gaps): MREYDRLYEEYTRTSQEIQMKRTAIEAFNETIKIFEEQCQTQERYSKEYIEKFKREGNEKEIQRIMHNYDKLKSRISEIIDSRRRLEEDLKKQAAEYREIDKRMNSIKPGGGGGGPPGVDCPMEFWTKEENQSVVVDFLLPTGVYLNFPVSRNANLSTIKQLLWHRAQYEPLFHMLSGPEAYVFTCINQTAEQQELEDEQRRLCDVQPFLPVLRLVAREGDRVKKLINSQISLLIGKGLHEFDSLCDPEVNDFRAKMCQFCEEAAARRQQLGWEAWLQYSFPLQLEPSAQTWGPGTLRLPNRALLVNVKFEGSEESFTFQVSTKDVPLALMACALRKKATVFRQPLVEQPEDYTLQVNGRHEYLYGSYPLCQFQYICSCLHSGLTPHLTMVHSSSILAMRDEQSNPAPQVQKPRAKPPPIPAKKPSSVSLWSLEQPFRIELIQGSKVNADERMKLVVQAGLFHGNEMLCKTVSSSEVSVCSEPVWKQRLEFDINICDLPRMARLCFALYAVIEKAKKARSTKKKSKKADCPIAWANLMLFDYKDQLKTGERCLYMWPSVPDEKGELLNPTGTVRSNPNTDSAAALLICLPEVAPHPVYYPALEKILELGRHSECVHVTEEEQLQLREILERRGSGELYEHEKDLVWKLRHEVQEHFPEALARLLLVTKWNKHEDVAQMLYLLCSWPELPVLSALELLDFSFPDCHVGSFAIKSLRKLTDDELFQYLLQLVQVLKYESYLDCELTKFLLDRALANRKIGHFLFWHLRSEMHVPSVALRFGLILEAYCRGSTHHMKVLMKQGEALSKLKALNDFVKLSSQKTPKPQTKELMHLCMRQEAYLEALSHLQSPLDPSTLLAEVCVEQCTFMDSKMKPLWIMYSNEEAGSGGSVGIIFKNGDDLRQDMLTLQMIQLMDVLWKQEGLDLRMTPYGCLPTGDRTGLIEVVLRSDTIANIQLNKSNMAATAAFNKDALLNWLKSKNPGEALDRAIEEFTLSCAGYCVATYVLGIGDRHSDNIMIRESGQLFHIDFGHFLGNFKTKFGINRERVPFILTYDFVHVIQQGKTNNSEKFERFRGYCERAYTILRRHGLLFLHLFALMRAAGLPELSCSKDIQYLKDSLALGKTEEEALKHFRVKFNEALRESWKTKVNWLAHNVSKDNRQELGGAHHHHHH

`COC[C@@H]1CCN(C(=O)Nc2nc3c(s2)-c2nc(C(C)(C)C(F)(F)F)sc2CC3)[C@@H]1C(N)=O` [Example 50, (2S,3R)-3-Methoxymethyl-pyrrolidine-1,2-dicarboxylic acid 2-amide 1-{[7-(2,2,2-trifluoro-1,1-dimethyl-ethyl)-4,5-dihydro-benzo[1,2-d;3,4-d′]bisthiazol-2-yl]-amide}] was tested. Which IC50 (PI3Kβ) did it give?
Its IC50 is 555 nM.

And the IC50 (PI3Kδ)?
Its IC50 is 113 nM.

What about the IC50 (PI3Kα) of the same compound?
Its IC50 is 9 nM.

How did the IC50 (PI3Kβ) turn out when `COC[C@@H]1CCN(C(=O)Nc2nc3c(s2)-c2nc(C(C)(C)C)ncc2CC3)[C@@H]1C(N)=O` [Example 42, (2S,3R)-3-Methoxymethyl-pyrrolidine-1,2-dicarboxylic acid 2-amide 1-[(8-tert-butyl-4,5-dihydro-thiazolo[4,5-h]quinazolin-2-yl)-amide]] was run?
Its IC50 is 409 nM.

And the IC50 (PI3Kδ)?
Its IC50 is 32 nM.

What about the IC50 (PI3Kα) of the same compound?
Its IC50 is 8 nM.

For `CCN(CC)c1ncc2c(n1)-c1sc(NC(=O)N3C[C@@H](N(C)C)C[C@H]3C(N)=O)nc1CC2` [Example 22, (2S,4S)-4-Dimethylamino-pyrrolidine-1,2-dicarboxylic acid 2-amide 1-[(8-diethylamino-4,5-dihydro-thiazolo[4,5-h]quinazolin-2-yl)-amide]], which IC50 (PI3Kγ) is on record?
Its IC50 is 262 nM.

And the IC50 (PI3Kβ)?
The IC50 was 6900 nM.

And the IC50 (PI3Kδ)?
Its IC50 is 1900 nM.

And the IC50 (PI3Kα)?
Its IC50 is 23.5 nM.

How did the IC50 (PI3Kβ) turn out when `CC(=O)NC[C@@H]1CCN(C(=O)Nc2nc3c(s2)-c2nc(C(C)(C)C)ncc2CC3)[C@@H]1C(N)=O` [Example 36, (2S,3S)-3-(Acetylamino-methyl)-pyrrolidine-1,2-dicarboxylic acid 2-amide 1-[(8-tert-butyl-4,5-dihydro-thiazolo[4,5-h]quinazolin-2-yl)-amide]] was run?
The IC50 was 510 nM.

What about the IC50 (PI3Kδ) of the same compound?
Its IC50 is 40 nM.

And the IC50 (PI3Kα)?
The IC50 was 12 nM.

What does the source list for `CCN(CC)c1ncc2c(n1)-c1sc(NC(=O)N3CCC[C@@]3(C)C(N)=O)nc1CC2` [Example 4, (S)-2-Methyl-pyrrolidine-1,2-dicarboxylic acid 2-amide 1-[(8-diethylamino-4,5-dihydro-thiazolo[4,5-h]quinazolin-2-yl)-amide]]?
IC50 (PI3Kγ): 176 nM; IC50 (PI3Kβ): 143 nM; IC50 (PI3Kδ): 220 nM; IC50 (PI3Kα): 6.5 nM

For `CCN(CC)c1ncc2c(n1)-c1sc(NC(=O)N3C[C@H](O)C[C@H]3C(N)=O)nc1CC2` [Example 27, (2S,4R)-4-Hydroxy-pyrrolidine-1,2-dicarboxylic acid 2-amide 1-[(8-diethylamino-4,5-dihydro-thiazolo[4,5-h]quinazolin-2-yl)-amide]], which IC50 (PI3Kγ) is on record?
Its IC50 is 97 nM.

And the IC50 (PI3Kβ)?
The IC50 was 397 nM.

What about the IC50 (PI3Kδ) of the same compound?
Its IC50 is 72 nM.

And the IC50 (PI3Kα)?
The IC50 was 4.5 nM.

Which results are given for `COC[C@@H]1CCN(C(=O)Nc2nc3c(s2)-c2nc(C(C)(C)C(F)(F)F)ncc2CC3)[C@@H]1C(N)=O` [Example 45, (2S,3R)-3-Methoxymethyl-pyrrolidine-1,2-dicarboxylic acid 2-amide 1-{[8-(2,2,2-trifluoro-1,1-dimethyl-ethyl)-4,5-dihydro-thiazolo[4,5-h]quinazolin-2-yl]-amide}]?
IC50 (PI3Kβ): 61 nM; IC50 (PI3Kδ): 24 nM; IC50 (PI3Kα): 6.5 nM

For `CC(C)(CF)c1nc2c(s1)CCc1nc(NC(=O)N3CCC[C@H]3C(N)=O)sc1-2` [Example 32, (S)-Pyrrolidine-1,2-dicarboxylic acid 2-amide 1-{[7-(2-fluoro-1,1-dimethyl-ethyl)-4,5-dihydro-benzo[1,2-d;3,4-d′]bisthiazol-2-yl]-amide}], which IC50 (PI3Kγ) is on record?
The IC50 was 131 nM.

What about the IC50 (PI3Kβ) of the same compound?
Its IC50 is 1090 nM.

And the IC50 (PI3Kδ)?
Its IC50 is 43 nM.

And the IC50 (PI3Kα)?
Its IC50 is 7 nM.

With `CC(C)(C)c1ncc2c(n1)-c1sc(NC(=O)N3CCC[C@@]3(CO)C(N)=O)nc1CC2` [Example 9, (R)-2-Hydroxymethyl-pyrrolidine-1,2-dicarboxylic acid 2-amide 1-[(8-tert-butyl-4,5-dihydro-thiazolo[4,5-h]quinazolin-2-yl)-amide]] as the compound, how does the IC50 (PI3Kγ) read?
The IC50 was 141 nM.

And the IC50 (PI3Kβ)?
The IC50 was 87 nM.

And the IC50 (PI3Kδ)?
Its IC50 is 72 nM.

What about the IC50 (PI3Kα) of the same compound?
The IC50 was 8.5 nM.

How did the IC50 (PI3Kγ) turn out when `CCN(CC)c1ncc2c(n1)-c1sc(NC(=O)N3C[C@H](F)C[C@H]3C(N)=O)nc1CC2` [Example 16, (2S,4R)-4-Fluoro-pyrrolidine-1,2-dicarboxylic acid 2-amide 1-[(8-diethylamino-4,5-dihydro-thiazolo[4,5-h]quinazolin-2-yl)-amide]] was run?
Its IC50 is 74 nM.

What about the IC50 (PI3Kβ) of the same compound?
Its IC50 is 297 nM.

What about the IC50 (PI3Kδ) of the same compound?
Its IC50 is 60 nM.

What about the IC50 (PI3Kα) of the same compound?
The IC50 was 5.5 nM.

Which results are given for `CCN(CC)c1ncc2c(n1)-c1sc(NC(=O)N3C[C@@H](F)C[C@H]3C(N)=O)nc1CC2` [Example 17, (2S,4S)-4-Fluoro-pyrrolidine-1,2-dicarboxylic acid 2-amide 1-[(8-diethylamino-4,5-dihydro-thiazolo[4,5-h]quinazolin-2-yl)-amide]]?
IC50 (PI3Kγ): 153 nM; IC50 (PI3Kβ): 389 nM; IC50 (PI3Kδ): 236 nM; IC50 (PI3Kα): 8 nM

Which IC50 (PI3Kγ) does the source give for `CC(C)(C)c1nc2c(s1)CCc1nc(NC(=O)N3CC[C@H]3C(N)=O)sc1-2` [Example 30, (S)-Azetidine-1,2-dicarboxylic acid 2-amide 1-[(7-tert-butyl-4,5-dihydro-benzo[1,2-d;3,4-d′]bisthiazol-2-yl)-amide]] here?
Its IC50 is 119 nM.

What about the IC50 (PI3Kβ) of the same compound?
Its IC50 is 2140 nM.

What about the IC50 (PI3Kδ) of the same compound?
The IC50 was 294 nM.

And the IC50 (PI3Kα)?
Its IC50 is 23 nM.

What does the source list for `CN(Cc1cccc(F)c1)C[C@@]1(C(N)=O)CCCN1C(=O)Nc1nc2c(s1)-c1nc(C(C)(C)C)ncc1CC2` [Example 10, (R)-2-{[(3-Fluoro-benzyl)-methyl-amino]-methyl}-pyrrolidine-1,2-dicarboxylic acid 2-amide 1-[(8-tert-butyl-4,5-dihydro-thiazolo[4,5-h]quinazolin-2-yl)-amide]]?
IC50 (PI3Kγ): 282 nM; IC50 (PI3Kβ): 449 nM; IC50 (PI3Kδ): 54 nM; IC50 (PI3Kα): 18 nM

Which IC50 (PI3Kγ) does the source give for `CCN(CC)c1ncc2c(n1)-c1sc(NC(=O)N3CCC[C@H]3C(N)=O)nc1CC2` [Example 12, (S)-Pyrrolidine-1,2-dicarboxylic acid 2-amide 1-[(8-diethylamino-4,5-dihydro-thiazolo[4,5-h]quinazolin-2-yl)-amide]] here?
Its IC50 is 230 nM.

What about the IC50 (PI3Kβ) of the same compound?
The IC50 was 516 nM.

And the IC50 (PI3Kδ)?
Its IC50 is 53 nM.

What about the IC50 (PI3Kα) of the same compound?
Its IC50 is 6 nM.

Which results are given for “(R)-2-Benzyl-pyrrolidine-1,2-dicarboxylic acid 2-amide 1-[(8-diethylamino-4,5-dihydro-thiazolo[4,5-h]quinazolin-2-yl)-amide] [Example 3]”?
IC50 (PI3Kγ): 1590 nM; IC50 (PI3Kβ): 127 nM; IC50 (PI3Kδ): 740 nM; IC50 (PI3Kα): 45 nM

`CCN(CC)c1ncc2c(n1)-c1sc(NC(=O)N3CC[C@H]3C(N)=O)nc1CC2` [Example 13, (S)-Azetidine-1,2-dicarboxylic acid 2-amide 1-[(8-diethylamino-4,5-dihydro-thiazolo[4,5-h]quinazolin-2-yl)-amide]] was tested. Which IC50 (PI3Kγ) did it give?
The IC50 was 104 nM.

And the IC50 (PI3Kβ)?
Its IC50 is 277 nM.

What about the IC50 (PI3Kδ) of the same compound?
The IC50 was 118 nM.

And the IC50 (PI3Kα)?
The IC50 was 9 nM.

How did the IC50 (PI3Kγ) turn out when `CN(C)[C@@H]1C[C@@H](C(N)=O)N(C(=O)Nc2nc3c(s2)-c2nc(C(C)(C)C)sc2CC3)C1` [Example 31, (2S,4R)-4-Dimethylamino-pyrrolidine-1,2-dicarboxylic acid 2-amide 1-[(7-tert-butyl-4,5-dihydro-benzo[1,2-d;3,4-d′]bisthiazol-2-yl)-amide]] was run?
Its IC50 is 1230 nM.

And the IC50 (PI3Kβ)?
Its IC50 is 5820 nM.

And the IC50 (PI3Kδ)?
The IC50 was 1940 nM.

And the IC50 (PI3Kα)?
The IC50 was 51.5 nM.

What does the source list for `CN(C)C[C@@H]1CCN(C(=O)Nc2nc3c(s2)-c2cc(C(C)(C)C)ncc2OC3)[C@@H]1C(N)=O` [Example 47, (2S,3S)-3-Dimethylaminomethyl-pyrrolidine-1,2-dicarboxylic acid 2-amide 1-[(8-tert-butyl-4H-5-oxa-1-thia-3,7-diaza-cyclopenta[a]naphthalen-2-yl)-amide]]?
IC50 (PI3Kβ): 6170 nM; IC50 (PI3Kδ): 1620 nM; IC50 (PI3Kα): 3 nM

Which IC50 (PI3Kβ) does the source give for `C[C@@H]1CCN(C(=O)Nc2nc3c(s2)-c2cc(C(C)(C)C)ncc2OC3)[C@@H]1C(N)=O` [Example 46, (2S,3R)-3-Methyl-pyrrolidine-1,2-dicarboxylic acid 2-amide 1-[(8-tert-butyl-4H-5-oxa-1-thia-3,7-diaza-cyclopenta[a]naphthalen-2-yl)-amide]] here?
Its IC50 is 1150 nM.

What about the IC50 (PI3Kδ) of the same compound?
The IC50 was 157 nM.

What about the IC50 (PI3Kα) of the same compound?
Its IC50 is 5.5 nM.

What does the source list for `CC(C)(C)c1ncc2c(n1)-c1sc(NC(=O)N3CC[C@@H](CN4CCOCC4)[C@H]3C(N)=O)nc1CC2` [Example 37, (2S,3S)-3-Morpholin-4-ylmethyl-pyrrolidine-1,2-dicarboxylic acid 2-amide 1-[(8-tert-butyl-4,5-dihydro-thiazolo[4,5-h]quinazolin-2-yl)-amide]]?
IC50 (PI3Kβ): 182 nM; IC50 (PI3Kδ): 19 nM; IC50 (PI3Kα): 4 nM

What does the source list for `C[C@@H]1CCN(C(=O)Nc2nc3c(s2)-c2cc(C(C)(C)C(F)(F)F)ncc2OC3)[C@@H]1C(N)=O` [Example 48, (2S,3R)-3-Methyl-pyrrolidine-1,2-dicarboxylic acid 2-amide 1-{[8-(2,2,2-trifluoro-1,1-dimethyl-ethyl)-4H-5-oxa-1-thia-3,7-diaza-cyclopenta[a]naphthalen-2-yl]-amide}]?
IC50 (PI3Kβ): 920 nM; IC50 (PI3Kδ): 19 nM; IC50 (PI3Kα): 6 nM

What does the source list for `CC(C)(C)c1ncc2c(n1)-c1sc(NC(=O)N3CC[C@@H](O)[C@H]3C(N)=O)nc1CC2` [Example 38, (2S,3R)-3-Hydroxy-pyrrolidine-1,2-dicarboxylic acid 2-amide 1-[(8-tert-butyl-4,5-dihydro-thiazolo[4,5-h]quinazolin-2-yl)-amide]]?
IC50 (PI3Kβ): 866 nM; IC50 (PI3Kδ): 44 nM; IC50 (PI3Kα): 9 nM

What does the source list for `CC(C)(C)c1nc2c(s1)CCc1nc(NC(=O)N3CC[C@@H](CN4CCOCC4)[C@H]3C(N)=O)sc1-2` [Example 41, (2S,3S)-3-Morpholin-4-ylmethyl-pyrrolidine-1,2-dicarboxylic acid 2-amide 1-[(7-tert-butyl-4,5-dihydro-benzo[1,2-d;3,4-d′]bisthiazol-2-yl)-amide]]?
IC50 (PI3Kβ): 3050 nM; IC50 (PI3Kδ): 496 nM; IC50 (PI3Kα): 24 nM
